Data set [1] relates to Human immunodeficiency virus 1. The data set is described as follows: Antiviral activity against HIV1. The format is functional, organism-based.
Data set [2] is described as follows: Therapeutic index, ratio of IC50 for MT2 cells to EC50 for HIV1. The format is cell-based. The note with it: human, read-out: Ratio IC50/EC50.
The next data set has as its system MT2. The data set is described as follows: Cytotoxicity against MT2 cells by XTT assay. The format is functional, cell-based. The note with it: Homo sapiens. On the technique in general: Formazan colour is commonly taken as a measure of viable cells.

Structures are written as SMILES. Activity calls are given as the source filed them. The rule behind the calls is not given here. A value given as a limit tells only on which side of the number the result lay.

Regarding `C=C(C)[C@@H]1CC[C@]2(C(=O)O)CC[C@]3(C)[C@H](CC[C@@H]4[C@@]5(C)CC[C@H](OC(=O)C[C@H](C)C(=O)O)C(C)(C)[C@@H]5CC[C@]43C)[C@@H]12`, in data set [1], the concentration giving a half-maximal response (EC50) (as a rule, the concentration needed to bring the measured effect to its halfway point) amounted to 8.7 nM. For the same molecule, the selectivity ratio in data set [2] was 6270. Moreover, the IC50 (as a rule, the concentration that gives 50% inhibition) with MT2 was found to be 32.8 µM.

Regarding `Cc1cn([C@H]2C[C@H](N=[N+]=[N-])[C@@H](CO)O2)c(=O)[nH]c1=O` [ZIDOVUDINE], the EC50 in data set [1] came to 340 nM. In the data set on MT2, this molecule yielded a concentration for half-maximal inhibition (IC50) of 1870 µM.

Regarding `C=C(C)[C@@H]1CC[C@]2(C(=O)O)CC[C@]3(C)[C@H](CC[C@@H]4[C@@]5(C)CC[C@H](OC(=O)C[C@@H](C)C(=O)O)C(C)(C)[C@@H]5CC[C@]43C)[C@@H]12`, the EC50 in data set [1] turned out to be 120 nM. The selectivity ratio in data set [2] was found to be 961. Besides, the 50% inhibitory concentration (IC50) in the data set with MT2 was > 43.8 µM.

Regarding `C=C(C)[C@@H]1CC[C@]2(C(=O)O)CC[C@]3(C)[C@H](CC[C@@H]4[C@@]5(C)CC[C@H](OC(=O)[C@H](C)CC(=O)O)C(C)(C)[C@@H]5CC[C@]43C)[C@@H]12`, the outcome in data set [1] was inactive. Also, in the data set with MT2, the half-inhibitory concentration (IC50) was > 43.8 µM.

On to `C=C(C)[C@@H]1CC[C@]2(C(=O)O)CC[C@]3(C)[C@H](CC[C@@H]4[C@@]5(C)CC[C@H](OC(=O)[C@@H](C)CC(=O)O)C(C)(C)[C@@H]5CC[C@]43C)[C@@H]12`, for which a half-maximal response in data set [1] (EC50) required 440 nM. In addition, the selectivity ratio in data set [2] worked out at 100. Besides, the IC50 in the data set with MT2 was > 43.8 µM.

In data set [1], `C=C(C)[C@@H]1CC[C@]2(C(=O)O)CC[C@]3(C)[C@H](CC[C@@H]4[C@@]5(C)CC[C@H](OC(=O)CC(C)C(=O)O)C(C)(C)[C@@H]5CC[C@]43C)[C@@H]12` (stereo partly specified) returned a 50% effective concentration (EC50) of 16 nM. Moreover, in data set [2], the selectivity ratio came to 5320. Further, the concentration for half-maximal inhibition (IC50) in the data set on MT2 was > 44.9 µM.

As for `C=C(C)[C@@H]1CC[C@]2(C(=O)O)CC[C@]3(C)[C@H](CC[C@@H]4[C@@]5(C)CC[C@H](OC(=O)C[C@H](C)CO)C(C)(C)[C@@H]5CC[C@]43C)[C@@H]12`, the outcome in data set [1] was inactive. For the same molecule, in the data set on MT2, the IC50 is > 44.9 µM.

Regarding `C=C(C)[C@@H]1CC[C@]2(C(=O)O)CC[C@]3(C)[C@H](CC[C@@H]4[C@@]5(C)CC[C@H](OC(=O)CC(C)(C)C(=O)O)C(C)(C)[C@@H]5CC[C@]43C)[C@@H]12` [BEVIRIMAT], in data set [1], it took 1.3 nM to reach a half-maximal effect (EC50). Also, the selectivity ratio in data set [2] turned out to be 30600. Also, in the data set on MT2, the half-inhibitory concentration (IC50) is > 42.8 µM.

Source of the values: ChEMBL document CHEMBL1140562, “Anti-AIDS agents 73: structure-activity relationship study and asymmetric synthesis of 3-O-monomethylsuccinyl-betulinic acid derivatives” (Bioorg Med Chem Lett, 2007).
